Measured values taken from ChEMBL document CHEMBL5126639, “Semisynthesis and Evaluation of Anti-Inflammatory Activity of the Cassane-Type Diterpenoid Taepeenin F and of Some Synthetic Intermediates” (J Nat Prod, 2022).
Calls of active or inactive are those of the source. No cut-off for these calls is given here.

Legend:
RAW264.7 [1] = assay: Anti-inflammatory activity against mouse RAW264.7 cells assessed as inhibition of LPS-induced NO production after 24 hrs by griess reagent assay; type: functional, cell-based; conditions: RAW264.7, 24 h
B16-F10 [2] = assay: Induction apoptosis in mouse B16-F10 cells assessed as viable cells at IC80 concentration after 48 hrs by AnnexinV/propidium iodide staining based flow cytometric analysis (reference value: 86.9%); type: functional
B16-F10 [3] = assay: Induction apoptosis in mouse B16-F10 cells assessed as necrotic cells at IC50 concentration after 72 hrs by AnnexinV/propidium iodide staining based flow cytometric analysis (reference value: 9.9%); type: functional
B16-F10 [4] = assay: Induction apoptosis in mouse B16-F10 cells assessed as increase in apoptotic cells at IC50 to IC80 concentration after 48 to 72 hrs by AnnexinV/propidium iodide staining based flow cytometric analysis; type: functional, cell-based; conditions: time 48-72 hrs, DDE = dose-dependent effect
B16-F10 [5] = assay: Induction apoptosis in mouse B16-F10 cells assessed as necrotic cells at IC50 concentration after 48 hrs by AnnexinV/propidium iodide staining based flow cytometric analysis (reference value: 8.2%); type: functional
RAW264.7 [6] = assay: Inhibition of LPS-induced cell differentiation in mouse RAW264.7 cells at 0.25 to 0.75 IC50 concentration after 72 hrs by propidium iodide staining based flow cytometric analysis; type: functional; conditions: DDE = dose-dependent effect
B16-F10 [7] = assay: Induction apoptosis in mouse B16-F10 cells assessed as viable cells at IC80 concentration after 72 hrs by AnnexinV/propidium iodide staining based flow cytometric analysis (reference value: 87.8%); type: functional
B16-F10 [8] = assay: Induction of cell cycle arrest in mouse B16-F10 cells assessed as cells accumulation at G2/M phase at IC80 concentration after 72 hrs by propidium iodide staining based flow cytometric analysis (reference value: 3.16%); type: functional
B16-F10 [9] = assay: Induction apoptosis in mouse B16-F10 cells assessed as necrotic cells at IC80 concentration after 48 hrs by AnnexinV/propidium iodide staining based flow cytometric analysis (reference value: 8.2%); type: functional
B16-F10 [10] = assay: Induction of cell cycle arrest in mouse B16-F10 cells assessed as cells accumulation at G2/M phase at IC50 concentration after 72 hrs by propidium iodide staining based flow cytometric analysis (reference value: 3.16%); type: functional
RAW264.7 [11] = assay: Anti-inflammatory activity against mouse RAW264.7 cells assessed as inhibition of LPS-induced NO production at 0.25 times of IC50 concentration after 24 to 72 hrs by griess reagent assay relative to control; type: functional, cell-based; conditions: time 24-72 hrs
[12] = Inhibition of LPS-induced cell cycle arrest in mouse RAW264.7 cells assessed as cell accumulation at G0/G1 phase at 0.25 to 0.75 IC50 concentration after 72 hrs by propidium iodide staining based flow cytometric analysis relative to control; type: functional; set-up: scale not given: the % may be the effect or the level left
[13] = Inhibition of LPS-induced cell cycle arrest in mouse RAW264.7 cells assessed as cell accumulation at S phase at 0.25 to 0.75 IC50 concentration after 72 hrs by propidium iodide staining based flow cytometric analysis relative to control; type: functional; set-up: scale not given: the % may be the effect or the level left
[14] = Inhibition of LPS-induced cell cycle arrest in mouse RAW264.7 cells assessed as cell accumulation at G2/M phase at 0.25 to 0.75 IC50 concentration after 72 hrs by propidium iodide staining based flow cytometric analysis relative to control; type: functional; set-up: scale not given: the % may be the effect or the level left
B16-F10 [15] = assay: Induction of cell cycle arrest in mouse B16-F10 cells assessed as cells accumulation at S phase at IC50 concentration after 72 hrs by propidium iodide staining based flow cytometric analysis (reference value: 39.21%); type: functional
HepG2 = assay: Antiproliferative activity against human HepG2 cells assessed as reduction in cell viability after 72 hrs by MTT assay; type: functional, cell-based
B16-F10 [16] = assay: Induction apoptosis in mouse B16-F10 cells assessed as early apoptotic cells at IC50 concentration after 72 hrs by AnnexinV/propidium iodide staining based flow cytometric analysis (reference value: 0.1%); type: functional
B16-F10 [17] = assay: Induction apoptosis in mouse B16-F10 cells assessed as viable cells at IC50 concentration after 48 hrs by AnnexinV/propidium iodide staining based flow cytometric analysis (reference value: 86.9%); type: functional
HT-29 = assay: Antiproliferative activity against human HT-29 cells assessed as reduction in cell viability after 72 hrs by MTT assay; type: functional, cell-based; conditions: HT-29, 72 h
RAW264.7 [18] = assay: Anti-inflammatory activity against mouse RAW264.7 cells assessed as inhibition of LPS-induced NO production after 48 hrs by griess reagent assay; type: functional, cell-based; conditions: RAW264.7, 48 h
Plasmodium falciparum = assay: Antimalarial activity against Plasmodium falciparum FCR-3/A2 erythrocytic stage infected in human erythrocytes assessed as reduction in parasite growth after 48 hrs by Giemsa staining based assay; type: functional, organism-based; conditions: FCR-3/A2, Erythrocyte

## CC(=O)O[C@H]1[C@@H]2OC(=O)[C@@H]3c4ccoc4C[C@@H]([C@@H]23)[C@@]2(C)[C@@H](O)CCC(C)(C)[C@]12O
RAW264.7 [1]
  IC50: 25.4 µM

## COC(=O)[C@]1(C)CCC[C@]2(C)c3cc(O)c(C=O)c(C)c3CC[C@@H]12
B16-F10 [2]
  Activity: 64.9%
B16-F10 [3]
  Activity: 0.9%
B16-F10 [4]
  Activity: Dde
B16-F10 [5]
  Activity: 2.8%
RAW264.7 [6]
  inhibition: Dde
B16-F10 [7]
  Activity: 57.9%
B16-F10 [8]
  Activity: 0%
B16-F10 [9]
  Activity: 2.2%
B16-F10 [10]
  Activity: 0.18%
RAW264.7 [11]
  inhibition: Active
[12]
  Activity: 68%
[13]
  Activity: 69%
[14]
  Activity: 0.3%

## COC(=O)[C@]1(C)CCC[C@@]2(C)[C@H]1CC=C1C(C)=C(C(C)C)C(=O)C[C@@H]12
B16-F10 [3]
  Activity: 3.8%
B16-F10 [4]
  Activity: Dde
B16-F10 [5]
  Activity: 2.7%
B16-F10 [15]
  Activity: 38.83%
RAW264.7 [6]
  inhibition: Dde
B16-F10 [7]
  Activity: 47.5%
B16-F10 [8]
  Activity: 1.22%
HepG2
  IC80: 72.4 µM
B16-F10 [9]
  Activity: 2.8%
B16-F10 [10]
  Activity: 1.12%
B16-F10 [16]
  Activity: 0.1%
RAW264.7 [11]
  inhibition: Active
[12]
  Activity: 68%
B16-F10 [17]
  Activity: 84.1%
[14]
  Activity: 0.3%

## COC(=O)[C@]1(C)CCC[C@]2(C)c3cc(O)c(C(C)C)c(C)c3CC[C@@H]12
RAW264.7 [11]
  inhibition: Active
HT-29
  IC50: 222 µM

## COC(=O)[C@]1(C)CCC[C@]2(C)c3cc(O)c(CO)c(C)c3CC[C@@H]12
RAW264.7 [11]
  inhibition: Active

## COC(=O)[C@]1(C)CCC[C@]2(C)c3cc4c(c(C)c3CC[C@@H]12)CC(=O)O4
RAW264.7 [11]
  inhibition: Active

## C[C@H]1c2ccoc2C[C@H]2[C@H]1[C@H]1O[C@H]1[C@@]1(O)C(C)(C)[C@@H](OC(=O)c3ccccc3)CC[C@]21C
RAW264.7 [18]
  IC50: 2.9 µM

## CC(=O)O[C@H]1CC(C)(C)[C@]2(O)CCc3c(cc(O)c(C=O)c3C)[C@@]2(C)[C@H]1OC(C)=O [NORCAESALPININ C]
Plasmodium falciparum
  IC50: 5 µM

## CC(=O)O[C@H]1CCC(C)(C)[C@]2(O)[C@@H](OC(C)=O)[C@@H]3OC(=O)[C@@H]4c5ccoc5C[C@@H]([C@@H]34)[C@@]12C [CAESALPININ D]
RAW264.7 [1]
  IC50: 25.4 µM
